Experimental data reported in EP4703354A1, “COMPOUND AS CCR6 ANTAGONIST, AND PHARMACEUTICAL COMPOSITION AND USE THEREOF” (Wuhan Createrna Science and Technology Co.,Ltd., priority 2023, dated 2024).

Experiments:
human CCR6 = target: T1, human CCR6 (Homo sapiens, UniProt P51684); assay: human CCR6 calcium flux activity (FLIPR, HEK293 cells stably expressing human CCR6, CCL20 stimulation); format: cell-based; settings: for IC50: HEK293 cells stably expressing human CCR6, EC80 human MIP-3 alpha/CCL20, read-out: CCR6 inhibitory activity, IC50; for CCR6 selectivity: ratio of CXCR2 IC50 to CCR6 IC50
T1 construct: expressed in transfected cells; host or cells: HEK293
T1 sequence (P51684 1-374): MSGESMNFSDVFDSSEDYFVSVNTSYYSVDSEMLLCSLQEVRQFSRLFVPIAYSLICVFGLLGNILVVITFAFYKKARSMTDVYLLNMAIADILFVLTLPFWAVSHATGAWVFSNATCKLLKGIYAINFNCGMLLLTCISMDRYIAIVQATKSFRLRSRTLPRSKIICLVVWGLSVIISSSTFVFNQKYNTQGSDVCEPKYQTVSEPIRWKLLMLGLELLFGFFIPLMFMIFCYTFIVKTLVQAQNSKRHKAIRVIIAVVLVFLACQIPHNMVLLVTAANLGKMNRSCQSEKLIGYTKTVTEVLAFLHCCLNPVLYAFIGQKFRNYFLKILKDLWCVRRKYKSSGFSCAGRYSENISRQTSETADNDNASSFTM
How it was run: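 Compounds preincubated with Fluo-4 Direct-loaded cells 50 min at 37 °C, then 10 min at room temperature, before CCL20 challenge at EC80. Fluorescence (ex 494/em 516 nm) recorded 90 s; max−min signal gives inhibition, four-parameter fit yields IC50.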

human CXCR2 = target: T2, human CXCR2 (Homo sapiens, UniProt P25025); assay: human CXCR2 calcium flux activity (FLIPR, HEK293 cells stably expressing human CXCR2, IL-8 stimulation); format: cell-based; settings: HEK293 cells stably expressing human CXCR2, EC80 human IL-8; read-out: CXCR2 inhibitory activity, IC50
T2 construct: expressed in transfected cells; host or cells: HEK293
T2 sequence (P25025 1-360): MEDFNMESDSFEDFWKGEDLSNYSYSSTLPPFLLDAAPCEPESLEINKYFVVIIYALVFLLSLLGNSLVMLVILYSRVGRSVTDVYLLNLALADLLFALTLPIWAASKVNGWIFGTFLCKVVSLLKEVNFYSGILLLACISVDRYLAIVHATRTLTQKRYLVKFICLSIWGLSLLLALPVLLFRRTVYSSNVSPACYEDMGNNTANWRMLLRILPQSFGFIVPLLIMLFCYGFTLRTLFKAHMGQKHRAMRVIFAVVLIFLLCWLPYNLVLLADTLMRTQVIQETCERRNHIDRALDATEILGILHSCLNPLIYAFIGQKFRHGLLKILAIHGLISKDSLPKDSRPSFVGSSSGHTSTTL
Description: The activity of the compounds was evaluated using HEK293 cells stably expressing human CXCR2 via the FLIPR platform. A 384-well black cell culture plate (Greiner, 781946) was used, with a seeding density of 20,000 cells/well, and incubated overnight at 37°C in a 5% CO2 incubator. The culture medium in the cell plate wells was removed, and 20 µL of Fluo-4 Direct™ Calcium Assay Buffer (Invitrogen, F10471, Component C), 20 µL of 2× Fluo-4 Direct™ Calcium Assay Reagent (Invitrogen, F10471, Component A) working solution, and 10 µL of 6× test compound working solution were sequentially added to each well. The cell plate was incubated in a 37 °C, 5% CO2 incubator for 50 min, followed by a 10 min incubation at room temperature. Additionally, a 6×EC80 human IL-8 (Sigma, SRP3311) working solution was prepared. After the incubation was completed, 10 µL/well of the 6×EC80 human IL-8 working solution was transferred to the corresponding cell wells using a FLIPR instrument, and the fluorescence signal changes at an excitation wavelength of 494 nm and an emission wavelength of 516 nm were recorded over 130 s. The difference between the maximum fluorescence signal (RFUMax) and the minimum fluorescence signal (RFUMin) was used as the output signal. The compound inhibition rate and the log value of the compound concentration were calculated, and a four-parameter fitting analysis was performed using GraphPad Prism 8 software to obtain the IC50 value of the test compound. Table 1. Inhibitory activity data of compounds against CCR6 and CXCR2

[1] = in vitro liver microsome metabolic stability, beagle dog; format: in vitro ADME; settings: Beagle dog liver microsomes, 37°C
Description: (§1) Preparation of working solutions for test compounds and standards: An appropriate amount of the compound was accurately weighed and dissolved in a corresponding volume of suitable solvent to prepare 1 mM stock solutions of the test compounds and standards. The stock solutions were then diluted with appropriate solvent to obtain 100 µM working solutions of the test compounds, ensuring that the DMSO content in the working solutions remained below 10%.
(§2) The internal standard compound testosterone (or tolbutamide) and its corresponding solvent, internal standard concentration (200 ng/mL), were selected based on the properties of the test compound.
(§3) • Solution A: 0.1 mol/L K2HPO4 (2.28 g K2HPO4·3H2O was dissolved in 100 mL of double-distilled water); • Solution B: 0.1 mol/L KH2PO4 (1.36 g KH2PO4 was dissolved in 100 mL of double-distilled water); • 80.2 mL of Solution A and 19.8 mL of Solution B were mixed thoroughly, and the pH was adjusted to 7.4.
(§4) 37.5 mg of glycine was weighed, dissolved in 100 mL of ultrapure water, and adjusted to pH 8.0 with NaOH.
(§5) 1.25 mg of glucose-6-phosphate dehydrogenase (400 U/mg) was weighed (the specific amount weighed was calculated based on the activity of the purchased glucose-6-phosphate dehydrogenase), dissolved in 1 mL of glycine buffer to a concentration of 500 U/mL, aliquoted into 20 µL per tube, and stored at -20°C for future use.
(§6) 7.83 mg of NADP, 0.06 mL of D-glucose-6-phosphate (260 mg/mL), and 10.17 mg of MgCl2·6H2O were precisely weighed.
(§7) The mixture was dissolved in 1 mL of pure water. The cofactor ratio composition: NADP 10 mM, D-glucose-6-phosphate 60 mM, MgCl2·6H2O 50 mM.
(§8) The reaction system (taking a 500 µL system as an example) was composed of the following solution ratios: 416.5 µL phosphate buffer, 5 µL compound working solution, 25 µL liver microsomes, 3.5 µL glucose-6-phosphate dehydrogenase, and 50 µL cofactor solution. The total incubation volume could be adjusted according to experimental requirements.
(§9) 416.5 µL of phosphate buffer was taken, 25 µL of liver microsomes, 3.5 µL of glucose-6-phosphate dehydrogenase, and 50 µL of cofactor solution were added, vortexed twice to mix, and preincubated in a 37°C water bath for 5 minutes. Then, 5 µL of the test compound working solution was added, vortexed twice to mix, each time for 2-3 seconds, and placed in a 37°C water bath to initiate the reaction, with two parallel samples set. At 0.5 min, 1 min, 2 min, 5 min, 15 min, and 30 min after the reaction, 50 µL of the mixture was taken and added to centrifuge tubes containing 200 µL of 0°C pre-cooled internal standard working solution to terminate the reaction, vortexed for 1 minute to mix, and centrifuged at 13,000 rpm for 10 minutes in a 4°C pre-cooled high-speed centrifuge. The supernatant was collected for analysis. After the compound was added and vortex-mixed, 50 µL of the mixture was rapidly transferred to a centrifuge tube containing 200 µL of a pre-cooled (0°C) internal standard working solution to terminate the reaction, vortex-mixed for 1 minute, and used as the relative zero-point sample (relative to the standard group). The sample was then placed into a 37°C water bath to initiate the reaction, and timing was started.
(§10) The sample analysis of the test compound was performed using the liquid chromatography-tandem mass spectrometry (LCMS/MS) method. The semi-quantitative determination was performed using the ratio of the analyte peak area to the internal standard peak area. The retention times of the analyte and internal standard, chromatogram acquisition, and chromatogram integration were processed using Analyst software.
(§11) The in vitro elimination rate constant k of the test compound and the control compound was determined by converting the ratio of the peak area of the test compound to the internal standard into the remaining rate, and T1/2 was then calculated according to the following formula. T1/2 = (Ln2)/(k) = (0.693)/(k) [formula] Table 3. […]

[2] = in vitro liver microsome metabolic stability, rat; format: in vitro ADME; settings: Rat liver microsomes, 37°C
Description: as §1, §2, §3, §4, §5, §6, §7, §8, §9, §10, §11

[3] = in vitro liver microsome metabolic stability, human; format: in vitro ADME; settings: Human liver microsomes, 37°C
Description: as §1, §2, §3, §4, §5, §6, §7, §8, §9, §10, §11

Row | Liver microsome T1-2 (min) Beagle dog [1] | Liver microsome T1-2 (min) Rat [2] | Liver microsome T1-2 (min) Human [3] | Compound | IC50 (human CCR6) | CCR6 selectivity (human CCR6) | IC50 (human CXCR2)
1 | – | – | – | Cc1ccc(F)nc1[C@H](Nc1c(Nc2ccnc(C(=O)N(C)C)c2O)c(=O)c1=O)C1(C)CCCC1 [compound 014, (R)-4-((2-(((6-fluoro-3-methylpyridin-2-yl)(1-methylcyclopentyl)methyl)amino)-3,4-dioxocyclobut-1-en-1-yl)amino)-3-hydroxy-N,N-dimethylpicolinamide] | 14.3 nM | 471.4 | 6740 nM
2 | – | – | – | CN(C)C(=O)c1nccc(Nc2c(N[C@@H](c3ncccc3CF)C3(C)CCCC3)c(=O)c2=O)c1O [compound 016, (R)-4-((2-(((3-(fluoromethyl)pyridin-2-yl)(1-methylcyclopentyl)methyl)amino)-3,4-dioxocyclobut-1-en-1-yl)amino)-3-hydroxy-N,N-dimethylpicolinamide] | 55.8 nM | 494.9 | 27600 nM
3 | – | – | – | CN(C)C(=O)c1nccc(Nc2c(N[C@@H](c3ncccc3Cl)C3(C)CCCC3)c(=O)c2=O)c1O [compound 019, (R)-4-((2-(((3-chloropyridin-2-yl)(1-methylcyclopentyl)methyl)amino)-3,4-dioxocyclobut-1-en-1-yl)amino)-3-hydroxy-N,N-dimethylpicolinamide] | 5 nM | 364.2 | 1820 nM
4 | – | – | – | CN(C)C(=O)c1nccc(Nc2c(N[C@@H](c3nc(F)ccc3Cl)C3(C)CCCC3)c(=O)c2=O)c1O [compound 025, (R)-4-((2-(((3-chloro-6-fluoropyridin-2-yl)(1-methylcyclopentyl)methyl)amino)-3,4-dioxocyclobut-1-en-1-yl)amino)-3-hydroxy-N,N-dimethylpicolinamide] | 2.8 nM | 282.4 | 791 nM
5 | – | – | – | Cc1ccc(C)c([C@H](Nc2c(Nc3ccnc(C(=O)N(C)C)c3O)c(=O)c2=O)C2(C)CCCC2)n1 [compound 051, (R)-4-((2-(((3,6-dimethylpyridin-2-yl)(1-methylcyclopentyl)methyl)amino)-3,4-dioxocyclobut-1-en-1-yl)amino)-3-hydroxy-N,N-dimethylpicolinamide] | 12.7 nM | 2469.1 | 31400 nM
6 | – | – | – | CC1([C@@H](Nc2c(Nc3ccnc(C(=O)N4CCOCC4)c3O)c(=O)c2=O)c2nc(F)ccc2F)CCCC1 [compound 060, (R)-3-(((3,6-difluoropyridin-2-yl)(1-methylcyclopentyl)methyl)amino)-4-((3-hydroxy-2-(morpholine-4-carbonyl)pyridin-4-yl)amino)cyclobut-3-ene-1,2-dione] | 1.9 nM | 207.0 | 393 nM
7 | – | – | – | CNC(=O)c1c(Cl)ccc(Nc2c(N[C@@H](c3ncccc3C)C3(C)CCCC3)c(=O)c2=O)c1O [compound 064, (R)-6-chloro-2-hydroxy-N-methyl-3-((2-(((1-methylcyclopentyl)(3-methylpyridin-2-yl)methyl)amino)-3,4-dioxocyclobut-1-en-1-yl)amino)benzamide] | 6.5 nM | 1730.2 | 11200 nM
8 | – | – | – | Cc1cc(F)cnc1[C@H](Nc1c(Nc2ccnc(C(=O)N(C)C(C)C)c2O)c(=O)c1=O)C1(C)CCCC1 [compound 066, (R)-4-((2-(((5-fluoro-3-methylpyridin-2-yl)(1-methylcyclopentyl)methyl)amino)-3,4-dioxocyclobut-1-en-1-yl)amino)-3-hydroxy-N-isopropyl-N-methylpicolinamide] | 19 nM | 2522.7 | 47900 nM
9 | – | – | – | CN(C)C(=O)c1nccc(Nc2c(N[C@@H](c3cccc(C(F)F)n3)C3(C)CCCC3)c(=O)c2=O)c1O [compound 107, (R)-4-((2-(((6-(difluoromethyl)pyridin-2-yl)(1-methylcyclopentyl)methyl)amino)-3,4-dioxocyclobut-1-en-1-yl)amino)-3-hydroxy-N,N-dimethylpicolinamide] | 3.8 nM | 196.0 | 745 nM
10 | 982.5 min | 266.64 min | 548.28 min | CC#CC(Nc1c(Nc2ccnc(C(=O)N(C)C)c2O)c(=O)c1=O)C1(C)CCC(F)(F)C1 (stereo not shown) [compound 111, 4-((2-((1-(3,3-difluoro-1-methylcyclopentyl)but-2-yn-1-yl)amino)-3,4-dioxocyclobut-1-en-1-yl)amino)-3-hydroxy-N,N-dimethylpicolinamide] | 106 nM | – | –
11 | – | – | – | CN(C)C(=O)c1nccc(Nc2c(N[C@@H](C#CC3CCC3)C3(C)CCCC3)c(=O)c2=O)c1O [compound 116, (R)-4-((2-((3-cyclobutyl-1-(1-methylcyclopentyl)prop-2-yn-1-yl)amino)-3,4-dioxocyclobut-1-en-1-yl)amino)-3-hydroxy-N,N-dimethylpicolinamide] | 28.9 nM | 13.1 | 379 nM
